Where two headings read alike, the source gives them in different places.
Assays:
[1] = Forced degradation study (formation of valdecoxib); format: physicochemical; conditions: oxidative, basic, acidic conditions
[2] = cited from earlier work; for solubility: 20° C.; for solubility (in words): aqueous
cyclooxygenase 1 (COX-1) = cyclooxygenase 1 (COX-1) (Homo sapiens, UniProt P23219); conditions: therapeutic plasma concentrations in humans; cited from earlier work
[3] = cited from earlier work

Chain of cyclooxygenase 1 (COX-1) (P23219 24-599): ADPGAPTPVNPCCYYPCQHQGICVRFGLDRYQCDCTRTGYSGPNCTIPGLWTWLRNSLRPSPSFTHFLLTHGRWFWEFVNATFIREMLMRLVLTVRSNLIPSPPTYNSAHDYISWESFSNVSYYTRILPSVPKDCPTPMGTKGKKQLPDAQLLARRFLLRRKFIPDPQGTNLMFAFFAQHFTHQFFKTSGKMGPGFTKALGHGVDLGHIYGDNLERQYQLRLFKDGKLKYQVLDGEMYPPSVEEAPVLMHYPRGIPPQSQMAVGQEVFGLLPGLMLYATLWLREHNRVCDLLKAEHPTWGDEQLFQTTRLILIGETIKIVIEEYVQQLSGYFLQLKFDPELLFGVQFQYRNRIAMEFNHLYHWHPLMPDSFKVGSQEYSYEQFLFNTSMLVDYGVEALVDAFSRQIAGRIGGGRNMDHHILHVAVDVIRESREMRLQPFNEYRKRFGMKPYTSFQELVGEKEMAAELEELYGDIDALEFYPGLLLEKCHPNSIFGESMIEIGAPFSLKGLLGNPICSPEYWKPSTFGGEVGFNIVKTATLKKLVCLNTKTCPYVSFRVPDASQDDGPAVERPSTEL

## CCC(=O)NS(=O)(=O)c1ccc(-c2c(-c3ccccc3)noc2C)cc1.[Na+] [parecoxib sodium, N-[[4-(5-methyl-3-phenyl-4-isoxazolyl)phenyl]sulfonyl]propanamide sodium salt]
[1]
  sensitivity in forced degradation in relation to the formation of valdecoxib: sensitive to oxidative, basic, and acidic conditions
[2]; pH 7.8
  solubility: 18 mg/mL
[2]; pH 8.3
  solubility: 220 mg/mL
[2]
  solubility (in words): highly soluble

## Cc1onc(-c2ccccc2)c1-c1ccc(S(N)(=O)=O)cc1 [valdecoxib]
Cyclooxygenase 1 (COX-1)
  inhibition of cyclooxygenase 1 (COX-1): does not inhibit
[2]
  solubility (in words): low

## CCC(=O)NS(=O)(=O)c1ccc(-c2c(-c3ccccc3)noc2C)cc1 [Parecoxib, parecoxib]
[3]; 1% in water at 25° C.
  pH of 1% parecoxib in water: about 7.80
[3]
  dissociation constant, pKa: 6.07
[2]; methylene chloride
  solubility in methylene hydrochloride: insoluble
[2]; tetrahydrofuran
  solubility in tetrahydrofuran: slightly soluble
[2]; water
  solubility in water: very soluble

## CCC(=O)NS(=O)(=O)c1ccc(-c2c(-c3ccccc3)noc2C)cc1 [acidic form of parecoxib]
[2]
  solubility (in words): low solubility
